Test results taken from ChEMBL document CHEMBL4699553, “Synthesis and biological evaluation of chalcone derivatives as neuroprotective agents against glutamate-induced HT22 mouse hippocampal neuronal cell death” (Bioorg Med Chem Lett, 2020).
The source made the active and inactive calls. No cut-off for these calls is given here.

Key:
[1] = tested on: HT-22; experiment: Neuroprotective activity against glutamate-induced cell death in mouse HT22 cells assessed as increase in cell viability at 0.15 to 38.46 uM incubated for 12 hrs by calcein-AM dye and propidium iodide staining based analysis; assay type: functional; conditions: dose microM 0.15-38.46, time 12.0 hrs
[2] = tested on: HT-22; experiment: Induction of apoptosis in mouse HT22 cells assessed as early apoptotic cells at 12.8 uM by Annexin-V FITC and propidium iodide staining based flow cytometric analysis (reference value: 3.37 %); assay type: cell-based; conditions: ht-22, 12.8 µM
[3] = tested on: Caenorhabditis elegans; experiment: Neuroprotective activity against 6-OHDA induced neuronal dysfunction in Caenorhabditis elegans N2 assessed as increase in number of body bending at 100 uM incubated for 1 hr and measured for 20 sec; assay type: functional, organism-based
[4] = target: T1, Nuclear factor erythroid 2-related factor 2 (Homo sapiens) (UniProt Q16236); experiment: Activation of Nrf2 in human HepG2 cells co-transfected with ARE luciferase gene assessed as increase in ARE-driven luciferase activity by luciferase reporter gene assay; assay type: cell-based; conditions: filed as activator
T1 sequence (whole entry): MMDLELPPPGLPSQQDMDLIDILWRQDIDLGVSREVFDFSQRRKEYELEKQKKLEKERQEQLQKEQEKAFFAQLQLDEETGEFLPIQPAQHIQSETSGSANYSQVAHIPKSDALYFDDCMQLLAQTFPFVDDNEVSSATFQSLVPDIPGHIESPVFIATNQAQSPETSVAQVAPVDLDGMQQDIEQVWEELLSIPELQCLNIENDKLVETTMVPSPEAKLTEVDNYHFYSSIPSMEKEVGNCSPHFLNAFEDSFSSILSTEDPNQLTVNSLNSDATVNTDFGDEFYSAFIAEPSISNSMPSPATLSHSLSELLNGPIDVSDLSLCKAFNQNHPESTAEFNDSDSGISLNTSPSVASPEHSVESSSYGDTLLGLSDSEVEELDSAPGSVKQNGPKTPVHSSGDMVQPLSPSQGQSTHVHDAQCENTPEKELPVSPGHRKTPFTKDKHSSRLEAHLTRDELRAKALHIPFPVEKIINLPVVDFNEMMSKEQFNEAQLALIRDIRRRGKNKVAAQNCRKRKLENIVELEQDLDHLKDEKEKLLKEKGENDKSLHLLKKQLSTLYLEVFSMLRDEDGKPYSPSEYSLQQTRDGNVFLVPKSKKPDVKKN

[5] = tested on: HT-22; experiment: Neuroprotection against glutamate-induced apoptosis in mouse HT22 cells assessed as increase in bcl2 protein level at 1.4 to 12.8 uM by Western blot analysis; assay type: functional, cell-based; conditions: dose microM 1.4-12.8
[6] = tested on: Hippocampus; experiment: Inhibition of erastin induced ferroptotic-cell death in rat hippocampal culture by propidium iodide uptake based fluorescence analysis; assay type: functional, tissue-based
[7] = tested on: HT-22; experiment: Induction of apoptosis in mouse HT22 cells assessed as necrotic cells at 12.8 uM by Annexin-V FITC and propidium iodide staining based flow cytometric analysis (reference value: 2.53 %); assay type: cell-based; conditions: ht-22, 12.8 µM
[8] = tested on: HT-22; experiment: Neuroprotection against glutamate-induced apoptosis in mouse HT22 cells assessed as decrease in translocation of AIF to nucleus at 12.8 uM by Western blot analysis; assay type: functional, cell-based
[9] = tested on: HT-22; experiment: Neuroprotective activity against glutamate-induced cell death in mouse HT22 cells assessed as live cells at 12.8 uM by Annexin-V FITC and propidium iodide staining based flow cytometric analysis (reference value: 15.03 %); assay type: functional
[10] = tested on: HT-22; experiment: Neuroprotective activity against glutamate-induced oxidative stress in mouse HT22 cells assessed as reduction in intracellular ROS accumulation at 12.8 uM by DCF-DA staining based fluorescence assay; assay type: functional, cell-based
[11] = tested on: HT-22; experiment: Neuroprotection against glutamate-induced apoptosis in mouse HT22 cells assessed as decrease in translocation of AIF to nucleus at 12.8 uM by immunostaining analysis; assay type: functional, cell-based
[12] = tested on: HT-22; experiment: Neuroprotection against glutamate-induced Ca2+ homeostasis disruption in mouse HT22 cells assessed as reduction in intracellular Ca2+ uptake at 1.4 to 12.8 uM by Fluo3-AM staining based fluorescent microscopic method; assay type: functional, cell-based; conditions: dose microM 1.4-12.8
[13] = tested on: HT-22; experiment: Neuroprotective activity against glutamate-induced cell death in mouse HT22 cells assessed as late apoptotic cells at 12.8 uM by Annexin-V FITC and propidium iodide staining based flow cytometric analysis (reference value: 4.62 %); assay type: functional
[14] = tested on: HT-22; experiment: Inhibition of glutamate-induced ERK activation in mouse HT22 cells assessed as reduction in phosphorylated ERK protein level by Western blot analysis; assay type: cell-based; conditions: dose microM 1.4-12.8
[15] = tested on: HT-22; experiment: Inhibition of glutamate-induced JNK activation in mouse HT22 cells assessed as reduction in phosphorylated JNK protein level by Western blot analysis; assay type: cell-based; conditions: dose microM 1.4-12.8
[16] = tested on: HT-22; experiment: Neuroprotective activity against glutamate-induced cell death in mouse HT22 cells assessed as necrotic cells at 12.8 uM by Annexin-V FITC and propidium iodide staining based flow cytometric analysis (reference value: 0.51 %); assay type: functional
[17] = tested on: HT-22; experiment: Neuroprotection against glutamate-induced apoptosis in mouse HT22 cells assessed as reduction in bax protein level at 1.4 to 12.8 uM by Western blot analysis; assay type: functional, cell-based; conditions: dose microM 1.4-12.8
[18] = tested on: HT-22; experiment: Induction of apoptosis in mouse HT22 cells assessed as late apoptotic cells at 12.8 uM by Annexin-V FITC and propidium iodide staining based flow cytometric analysis (reference value: 7.05 %); assay type: cell-based; conditions: ht-22, 12.8 µM
[19] = Induction of apoptosis in mouse HT22 cells assessed as viable cells at 12.8 uM by Annexin-V FITC and propidium iodide staining based flow cytometric analysis (reference value: 87.05 %); assay type: cell-based, HT-22; conditions: read-out: Activity
[20] = tested on: HT-22; experiment: Neuroprotective activity against glutamate-induced cell death in mouse HT22 cells assessed as early apoptotic cells at 12.8 uM by Annexin-V FITC and propidium iodide staining based flow cytometric analysis (reference value: 79.84 %); assay type: functional
[21] = target: MAP kinase p38 (Mus musculus) (UniProt P47811+O08911+Q9WUI1+Q9Z1B7); experiment: Inhibition of glutamate-induced p38 MAPK activation in mouse HT22 cells assessed as reduction in phosphorylated p38 MAPK protein level by Western blot analysis; assay type: cell-based; conditions: HT-22, dose microM 1.4-12.8
[22] = tested on: HT-22; experiment: Neuroprotective activity against glutamate-induced cell death in mouse HT22 cells assessed as cell viability at 12.8 uM incubated for 12 hrs by calcein AM dye and propidium iodide staining based analysis (reference value: 50%); assay type: functional; conditions: read-out: Activity
[23] = Antioxidant activity assessed as DPPH radical scavenging activity; assay type: functional

COc1ccc2c(c1)C(=O)/C(=C/c1ccc(O)cc1)CC2
Activity [1]: inactive

COc1ccc2c(c1)C(=O)/C(=C/c1cc(OC)c(Br)c(OC)c1)CC2
Activity [1]: Active

COc1ccc2c(c1)C(=O)/C(=C/c1cc(OC)c(OC)cc1Br)CC2
Activity [1]: Active

COc1cc(OC)c(/C=C2\CCc3ccc(OC)cc3C2=O)c(OC)c1
Activity [1]: Active

COc1ccc2c(c1)C(=O)/C(=C/c1ccc(N(C)C)cc1)CC2
Activity [1]: Active

COc1ccc2c(c1)C(=O)/C(=C/c1ccc(OC)c(OC)c1)CC2
Activity [1]: Active

COc1ccc2c(c1)C(=O)/C(=C/c1cccc(O)c1)CC2
Activity [1]: inactive

COc1ccc2c(c1)C(=O)/C(=C/c1cc(OC)c(OC)c(OC)c1)CC2
Activity [1]: Active

COc1ccc2c(c1)C(=O)/C(=C/c1c[nH]c3ccccc13)CC2
Activity [2]: 0.95%
Activity [3]: Active
Activity [4]: Active
Activity [5]: Active
inhibition [6]: inactive
Activity [7]: 2.08%
Activity [8]: Active
Activity [9]: 91.37%
Activity [10]: Active
Activity [11]: Active
Activity [12]: Active
Activity [13]: 5.92%
inhibition [14]: Dose-dependent effect
inhibition [15]: Dose-dependent effect
Activity [16]: 1.68%
Activity [17]: Active
Activity [18]: 8.72%
viability at 12.8 µM [19]: 88.2%
Activity [20]: 1.03%
inhibition [21]: Dose-dependent effect
viability at 12.8 µM [22]: > 80%
Activity [23]: inactive

COc1cccc(/C=C2\CCc3ccc(OC)cc3C2=O)c1
Activity [1]: Active
